Source: the NIST ThermoML archive (doi:10.1021/je0503204)
Numbers after ± are expanded uncertainties.

Conditions: Liquid; for speed of sound: Pulse-echo method

CCCCCCCl [1-chlorohexane]
Conditions	mass density [kg/m3]	speed of sound [m/s]
293.15 K, 100 kPa	878.5 ± 5.3	1219.1 ± 4.9
293.15 K, 5000 kPa	884.2 ± 5.3	1240.5 ± 5
293.15 K, 9910 kPa	887 ± 5.3	1264.5 ± 5.1
293.15 K, 19720 kPa	894.7 ± 5.4	1310 ± 5.3
293.15 K, 29530 kPa	901.8 ± 5.4	1352.6 ± 5.4
293.15 K, 39340 kPa	908.4 ± 5.5	1392.6 ± 5.6
293.15 K, 49150 kPa	914.6 ± 5.5	1430.1 ± 5.8
293.15 K, 58960 kPa	920.4 ± 5.5	1465.7 ± 5.9
293.15 K, 68770 kPa	925.9 ± 5.6	1499.3 ± 6
293.15 K, 78580 kPa	931.1 ± 5.6	1531.5 ± 6.2
293.15 K, 88390 kPa	936 ± 5.6	1562.3 ± 6.3
293.15 K, 98200 kPa	940.7 ± 5.6	1591.9 ± 6.4
293.15 K, 108000 kPa	945.1 ± 5.7	1620.6 ± 6.5
293.15 K, 117800 kPa	949.4 ± 5.7	1648.2 ± 6.6
293.15 K, 127600 kPa	953.4 ± 5.7	1675.2 ± 6.7
293.15 K, 137400 kPa	957.3 ± 5.7	1701.5 ± 6.8
293.15 K, 147200 kPa	961.1 ± 5.8	1727.1 ± 7
293.15 K, 157100 kPa	964.7 ± 5.8	1752.2 ± 7.1
293.15 K, 166900 kPa	968.1 ± 5.8	1776.7 ± 7.1
293.15 K, 176700 kPa	971.5 ± 5.8	1800.6 ± 7.2
293.15 K, 186500 kPa	974.7 ± 5.8	1824 ± 7.3
293.15 K, 196300 kPa	977.9 ± 5.9	1846.5 ± 7.4
313.15 K, 100 kPa	859.4 ± 5.2	1140.7 ± 4.6
313.15 K, 5000 kPa	865 ± 5.2	1166.4 ± 4.7
313.15 K, 9910 kPa	869.8 ± 5.2	1191.8 ± 4.8
313.15 K, 19720 kPa	878.3 ± 5.3	1240.1 ± 5
313.15 K, 29530 kPa	886.2 ± 5.3	1285.3 ± 5.2
313.15 K, 39340 kPa	893.4 ± 5.4	1327.6 ± 5.3
313.15 K, 49150 kPa	900.1 ± 5.4	1367.4 ± 5.5
313.15 K, 58960 kPa	906.4 ± 5.4	1405 ± 5.7
313.15 K, 68770 kPa	912.3 ± 5.5	1440.6 ± 5.8
313.15 K, 78580 kPa	917.9 ± 5.5	1474.6 ± 5.9
313.15 K, 88390 kPa	923.1 ± 5.5	1507 ± 6.1
313.15 K, 98200 kPa	928.1 ± 5.6	1538 ± 6.2
313.15 K, 108000 kPa	932.8 ± 5.6	1567.9 ± 6.3
313.15 K, 117800 kPa	937.3 ± 5.6	1596.7 ± 6.4
313.15 K, 127600 kPa	941.6 ± 5.7	1624.5 ± 6.5
313.15 K, 137400 kPa	945.7 ± 5.7	1651.4 ± 6.6
313.15 K, 147200 kPa	949.7 ± 5.7	1677.5 ± 6.8
313.15 K, 157100 kPa	953.5 ± 5.7	1702.6 ± 6.9
313.15 K, 166900 kPa	957.1 ± 5.7	1726.9 ± 6.9
313.15 K, 176700 kPa	960.6 ± 5.8	1750.3 ± 7
313.15 K, 186500 kPa	964 ± 5.8	1772.6 ± 7.1
313.15 K, 196300 kPa	967.2 ± 5.8	1793.6 ± 7.2
333.15 K, 100 kPa	840.3 ± 5	1068.8 ± 4.3
333.15 K, 5000 kPa	847.1 ± 5.1	1097.1 ± 4.4
333.15 K, 9910 kPa	851.9 ± 5.1	1124.4 ± 4.5
333.15 K, 19720 kPa	861.5 ± 5.2	1176 ± 4.7
333.15 K, 29530 kPa	870.3 ± 5.2	1224 ± 4.9
333.15 K, 39340 kPa	878.3 ± 5.3	1268.8 ± 5.1
333.15 K, 49150 kPa	885.7 ± 5.3	1310.8 ± 5.3
333.15 K, 58960 kPa	892.6 ± 5.4	1350.4 ± 5.4
333.15 K, 68770 kPa	899 ± 5.4	1387.7 ± 5.6
333.15 K, 78580 kPa	905 ± 5.4	1423.2 ± 5.7
333.15 K, 88390 kPa	910.7 ± 5.5	1457 ± 5.9
333.15 K, 98200 kPa	916 ± 5.5	1489.4 ± 6
333.15 K, 108000 kPa	921.1 ± 5.5	1520.4 ± 6.1
333.15 K, 117800 kPa	925.9 ± 5.6	1550.3 ± 6.2
333.15 K, 127600 kPa	930.4 ± 5.6	1579.1 ± 6.4
333.15 K, 137400 kPa	934.8 ± 5.6	1607 ± 6.5
333.15 K, 147200 kPa	939 ± 5.6	1633.9 ± 6.6
333.15 K, 157100 kPa	943 ± 5.7	1659.9 ± 6.7
333.15 K, 166900 kPa	946.8 ± 5.7	1684.9 ± 6.8
333.15 K, 176700 kPa	950.5 ± 5.7	1708.9 ± 6.9
333.15 K, 186500 kPa	954 ± 5.7	1731.8 ± 7
333.15 K, 196300 kPa	957.4 ± 5.7	1753.5 ± 7.1
353.15 K, 100 kPa	821.3 ± 4.9	995 ± 4
353.15 K, 5000 kPa	828.1 ± 5	1026.2 ± 4.1
353.15 K, 9910 kPa	833.7 ± 5	1055.4 ± 4.3
353.15 K, 19720 kPa	844.5 ± 5.1	1110.7 ± 4.5
353.15 K, 29530 kPa	854.3 ± 5.1	1162 ± 4.7
353.15 K, 39340 kPa	863.1 ± 5.2	1209.8 ± 4.9
353.15 K, 49150 kPa	871.2 ± 5.2	1254.5 ± 5.1
353.15 K, 58960 kPa	878.7 ± 5.3	1296.3 ± 5.2
353.15 K, 68770 kPa	885.6 ± 5.3	1335.8 ± 5.4
353.15 K, 78580 kPa	892.1 ± 5.4	1373 ± 5.5
353.15 K, 88390 kPa	898.2 ± 5.4	1408.3 ± 5.7
353.15 K, 98200 kPa	903.8 ± 5.4	1441.9 ± 5.8
353.15 K, 108000 kPa	909.2 ± 5.5	1474 ± 5.9
353.15 K, 117800 kPa	914.3 ± 5.5	1504.7 ± 6.1
353.15 K, 127600 kPa	919.1 ± 5.5	1534.3 ± 6.2
353.15 K, 137400 kPa	923.7 ± 5.5	1562.7 ± 6.3
353.15 K, 147200 kPa	928.1 ± 5.6	1590.1 ± 6.4
353.15 K, 157100 kPa	932.3 ± 5.6	1616.4 ± 6.5
353.15 K, 166900 kPa	936.3 ± 5.6	1641.8 ± 6.6
353.15 K, 176700 kPa	940.1 ± 5.6	1666.1 ± 6.7
353.15 K, 186500 kPa	943.8 ± 5.7	1689.4 ± 6.8
353.15 K, 196300 kPa	947.4 ± 5.7	1711.4 ± 6.9
373.15 K, 100 kPa	802.2 ± 4.8	922.9 ± 3.7
373.15 K, 5000 kPa	809.3 ± 4.9	957 ± 3.9
373.15 K, 9910 kPa	815.2 ± 4.9	989.6 ± 4
373.15 K, 19720 kPa	827.4 ± 5	1050.4 ± 4.2
373.15 K, 29530 kPa	838.3 ± 5	1105.8 ± 4.5
373.15 K, 39340 kPa	848 ± 5.1	1156.5 ± 4.7
373.15 K, 49150 kPa	856.9 ± 5.1	1203.2 ± 4.8
373.15 K, 58960 kPa	865 ± 5.2	1246.3 ± 5
373.15 K, 68770 kPa	872.5 ± 5.2	1286.9 ± 5.2
373.15 K, 78580 kPa	879.4 ± 5.3	1324.8 ± 5.3
373.15 K, 88390 kPa	885.9 ± 5.3	1360.8 ± 5.5
373.15 K, 98200 kPa	891.9 ± 5.4	1395.1 ± 5.6
373.15 K, 108000 kPa	897.6 ± 5.4	1427.9 ± 5.7
373.15 K, 117800 kPa	903 ± 5.4	1459.6 ± 5.9
373.15 K, 127600 kPa	908.1 ± 5.4	1490.1 ± 6
373.15 K, 137400 kPa	912.9 ± 5.5	1519.6 ± 6.1
373.15 K, 147200 kPa	917.5 ± 5.5	1548.1 ± 6.2
373.15 K, 157100 kPa	921.9 ± 5.5	1575.5 ± 6.3
373.15 K, 166900 kPa	926.1 ± 5.6	1601.7 ± 6.4
373.15 K, 176700 kPa	930.1 ± 5.6	1626.5 ± 6.5
373.15 K, 186500 kPa	934 ± 5.6	1649.5 ± 6.6
373.15 K, 196300 kPa	937.7 ± 5.6	1670.6 ± 6.7
393.15 K, 100 kPa	780.7 ± 4.7	853.3 ± 3.4
393.15 K, 5000 kPa	789.2 ± 4.7	893.8 ± 3.6
393.15 K, 9910 kPa	796.7 ± 4.8	928.6 ± 3.7
393.15 K, 19720 kPa	810.5 ± 4.9	993.2 ± 4
393.15 K, 29530 kPa	822.6 ± 4.9	1051.8 ± 4.2
393.15 K, 39340 kPa	833.3 ± 5	1105.2 ± 4.5
393.15 K, 49150 kPa	843 ± 5.1	1154.2 ± 4.7
393.15 K, 58960 kPa	851.8 ± 5.1	1199.4 ± 4.8
393.15 K, 68770 kPa	859.8 ± 5.2	1241.4 ± 5
393.15 K, 78580 kPa	867.2 ± 5.2	1280.8 ± 5.2
393.15 K, 88390 kPa	874.1 ± 5.2	1318 ± 5.3
393.15 K, 98200 kPa	880.6 ± 5.3	1353.3 ± 5.5
393.15 K, 108000 kPa	886.6 ± 5.3	1387.2 ± 5.6
393.15 K, 117800 kPa	892.3 ± 5.4	1419.7 ± 5.7
393.15 K, 127600 kPa	897.6 ± 5.4	1451.2 ± 5.8
393.15 K, 137400 kPa	902.7 ± 5.4	1481.6 ± 6
393.15 K, 147200 kPa	907.5 ± 5.4	1511.1 ± 6.1
393.15 K, 157100 kPa	912.1 ± 5.5	1539.5 ± 6.2
393.15 K, 166900 kPa	916.4 ± 5.5	1566.9 ± 6.3
393.15 K, 176700 kPa	920.6 ± 5.5	1592.8 ± 6.4
393.15 K, 186500 kPa	924.6 ± 5.5	1617.2 ± 6.5
393.15 K, 196300 kPa	928.4 ± 5.6	1639.7 ± 6.6
413.15 K, 100 kPa	759.1 ± 4.6	784 ± 3.2
413.15 K, 5000 kPa	769.6 ± 4.6	829.4 ± 3.3
413.15 K, 9910 kPa	777.6 ± 4.7	867.7 ± 3.5
413.15 K, 19720 kPa	793.3 ± 4.8	938.1 ± 3.8
413.15 K, 29530 kPa	806.8 ± 4.8	1001.1 ± 4
413.15 K, 39340 kPa	818.6 ± 4.9	1057.7 ± 4.3
413.15 K, 49150 kPa	829.2 ± 5	1109 ± 4.5
413.15 K, 58960 kPa	838.7 ± 5	1155.8 ± 4.7
413.15 K, 68770 kPa	847.4 ± 5.1	1198.9 ± 4.8
413.15 K, 78580 kPa	855.3 ± 5.1	1239.1 ± 5
413.15 K, 88390 kPa	862.7 ± 5.2	1276.9 ± 5.1
413.15 K, 98200 kPa	869.5 ± 5.2	1312.8 ± 5.3
413.15 K, 108000 kPa	875.8 ± 5.3	1347.4 ± 5.4
413.15 K, 117800 kPa	881.8 ± 5.3	1380.6 ± 5.6
413.15 K, 127600 kPa	887.4 ± 5.3	1413 ± 5.7
413.15 K, 137400 kPa	892.7 ± 5.4	1444.5 ± 5.8
413.15 K, 147200 kPa	897.8 ± 5.4	1475.2 ± 5.9
413.15 K, 157100 kPa	902.5 ± 5.4	1504.9 ± 6.1
413.15 K, 166900 kPa	907.1 ± 5.4	1533.7 ± 6.2
413.15 K, 176700 kPa	911.4 ± 5.5	1560.9 ± 6.3
413.15 K, 186500 kPa	915.6 ± 5.5	1586.4 ± 6.4
413.15 K, 196300 kPa	919.5 ± 5.5	1609.7 ± 6.5
